# Test results from US20210371351A1, “MIXTURES COMPRISING AT LEAST TWO DIFFERENT NITRIFICATION INHIBITORS SELECTED FROM 2-(3,4-DIMETHYL-1H-PYRAZOL-1-YL)SUCCINIC ACID (DMPSA), 3,4-DIMETHYL PYRAZOLIUM GLYCOLATE (DMPG) AND OTHER COMPOUNDS” (BASF SE, priority 2017, published 2021).
# Experiments:
# nitrification [1] = experiment: Example 4: soil column trial (soil Limburgerhof), DMPSA and DMPP, other weight ratios; incubation 10 d at 15° C.; % inhibition of NO3-N formation (Böhland), Colby; details: 10 days of incubation at 15° C.; 0.005% DMPP, 0.45% DMPSA
# Source text: The effect on NH4+ retention and NH4+ to NO3− ratios in the soil after fertilization of ammonium sulfate with the addition of DMPP, DMPSA or a combination of DMPP and DMPSA was investigated in column trials simulating climatic conditions of spring time in central Europe. Soil Limburgerhof (pH(CaCl2) 6.8, texture: 73% sand; 24% silt, 3% clay) was filled dry into a glass column with an inner width of 4 cm. At the bottom 0.4 g cotton wool was placed above which a frit (Co. Robu, pore size 1) was placed above which 100 g of 2 mm sieved soil Limburgerhof was layered. The soil height in the column was about 7 cm. Before fertilization the soil was brought to about 60% of its water holding capacity (WHC) be adding 14.4 mL of deionized water. Per column 10 mg NH4—N as ammonium sulfate was fertilized or not (control) together or not with 0.005% or 0.015% DMPP (DMPP obtained from BASF SE), 0.45% DMPSA (DMPSA used as free acid obtained from BASF SE) and […] or 0.015% DMPP plus 0.45% DMPSA (% of nitrification inhibitor w/w of NH4-N). Every treatment was replicated three times. After fertilization, 50 mL demineralized water was carefully and slowly placed on top of each column which equals about 31 mm precipitation. After 24 h the eluate was collected and by sucking off the soil to bring it back to about 60% of its WHC. All handlings including soil preparation, fertilization and the temperature of the water for both wetting the soil and the artificial precipitation up to the collection of the eluate 24 h after fertilization was performed at 5° C.
# Thereafter, the columns were incubated for 10 d or 20 d at constantly 15° C. in an incubator. After 7 d and 14 d water was added by weight where needed to bring the soils uniformly to 60% WHC. After 10 d or 20 d the soil was removed from the columns and extracted with 1% (w/w) K2SO4 solution by shaking for 2 h at room temperature. The filtrated extract was then analyzed for NH4+ and NO3− colorimetrical by an autoanalyzer.
# To calculate the inhibition of nitrate formation by the nitrification inhibitors during the incubation, the above-mentioned Böhland equation was used. To examine synergistic effects of the combination of DMPP+DMPSA the formula by Colby (Colby, S.R., “Calculating synergistic and antagonistic responses of herbicide Combinations”, Weeds, 15, pp. 20-22, 1967) was used. To determine background levels of NH4+ to NO3−, every treatment was also extracted immediately after fertilization and after leaching prior to the further incubation at 15° C. for 10 d or 20 d.
# nitrification [2] = experiment: Example 5: soil incubation in bottles with ammonium sulfate, DMPSA, DCD or mixtures, 5 to 15° C., 0 up to 56 days; recovery NH4 (RE/RC), net recovery NH4 (NE/NC), inhibition of NO3 formation (IE/IC, Böhland; Colby); set-up: unit not given here
# Procedure: 100 g soil is filled into 500 ml plastic bottles (e.g. soil sampled from the field) and is moistened to 50% water holding capacity. The soil is incubated at 20° C. for two weeks to activate the microbial biomass. 1 ml test solution, containing the compositions and mixtures of the invention in the appropriate concentration, or DMSO and 5 to 10 mg nitrogen in the form of ammoniumsulfate-N is added to the soil and everything mixed well. Bottles are capped but loosely to allow air exchange. The bottles are then incubated at 5 to 15° C. for 0 up to 56 days.
# For analysis, 300 ml of a 1% K2SO4-solution is added to the bottle containing the soil and shaken for 2 hrs in a horizontal shaker at 150 rpm. Then the whole solution is filtered through a Macherey-Nagel Filter MN 807′/. Ammonium and nitrate content is then analyzed in the filtrate in an autoanalyzer at 550 nm (Merck, AA11).
# The Böhland equation is described in Böhland, H., et al. (1973) “Mittel zur Hemmung bzw. Regelung der Nitrifikation von Ammoniumstickstoff in Kulturböden”. DDR-Wirtschaftspatent (Economic patent of the German Democratic Republic) C 05c 169 727. Cited by: Peschke, H. (1985) “Zur Bewertung der inhibierenden Wirkung von Nitrifiziden im Boden”, Zbl. Mikrobiol. 140, pp. 583-588.
substance,measurement,setting,value
"2-(3,4-dimethyl-1H-pyrazol-1-yl)succinic acid and/or 2-(4,5-dimethyl-1H-pyrazol-1-yl)succinic acid [DMPSA]",During incubation: % inhibition of NO3—N formation by NI acc. to Böhland equation (1973) (MV),nitrification [1],22.9%
same,Net NI effect % NH4 from fertilized NH4 (MV),nitrification [1],9.36%
same,Ratio NH4—N/NO3—N (MV),nitrification [1],0.20
same,Soil mg/100 g NH4—N (MV),nitrification [1],0.96 mg/100 g
same,Soil mg/100 g NO3—N (MV),nitrification [1],5.15 mg/100 g
same,IE inhibition of NO3 formation,"nitrification [2]; IT5° C., DAT10, % a.i.: DMPSA 0.5, DCD 1, DMPSA + DCD 0.5 + 1 (1:2)",18
same,IE inhibition of NO3 formation,"nitrification [2]; IT5° C., DAT10, % a.i.: DMPSA 0.5, DCD 3, DMPSA + DCD 0.5 + 3 (1:6)",18
same,IE inhibition of NO3 formation,"nitrification [2]; IT5° C., DAT20, % a.i.: DMPSA 0.5, DCD 1, DMPSA + DCD 0.5 + 1 (1:2)",20
same,IE inhibition of NO3 formation,"nitrification [2]; IT5° C., DAT20, % a.i.: DMPSA 0.5, DCD 3, DMPSA + DCD 0.5 + 3 (1:6)",20
same,"IE (inhibition of NO3 formation, Böhland)","nitrification [2]; IT5° C., DAT28, % a.i. DMPSA 0.25, DCD 1",77
same,"IE (inhibition of NO3 formation, Böhland)","nitrification [2]; IT5° C., DAT28, % a.i. DMPSA 0.25, DCD 3",77
same,"IE (inhibition of NO3 formation, Böhland)","nitrification [2]; IT5° C., DAT28, % a.i. DMPSA 0.30, DCD 0.05",42
same,"IE (inhibition of NO3 formation, Böhland)","nitrification [2]; IT5° C., DAT28, % a.i. DMPSA 0.50, DCD 0.08",41
same,IE inhibition of NO3 formation,"nitrification [2]; IT5° C., DAT28, % a.i.: DMPSA 0.50, DCD 0.0125, DMPSA + DCD 0.50 + 0.0125 (40:1)",44
same,IE inhibition of NO3 formation,"nitrification [2]; IT5° C., DAT28, % a.i.: DMPSA 0.50, DCD 0.0143, DMPSA + DCD 0.50 + 0.0143 (35:1)",44
same,IE inhibition of NO3 formation,"nitrification [2]; IT5° C., DAT28, % a.i.: DMPSA 0.50, DCD 0.0167, DMPSA + DCD 0.50 + 0.0167 (30:1)",44
same,IE inhibition of NO3 formation,"nitrification [2]; IT5° C., DAT30, % a.i.: DMPSA 0.5, DCD 1, DMPSA + DCD 0.5 + 1 (1:2)",66
same,IE inhibition of NO3 formation,"nitrification [2]; IT5° C., DAT30, % a.i.: DMPSA 0.5, DCD 3, DMPSA + DCD 0.5 + 3 (1:6)",66
same,"IE (inhibition of NO3 formation, Böhland)","nitrification [2]; IT5° C., DAT42, % a.i. DMPSA 0.25, DCD 1",75
same,"IE (inhibition of NO3 formation, Böhland)","nitrification [2]; IT5° C., DAT42, % a.i. DMPSA 0.25, DCD 3",75
same,"IE (inhibition of NO3 formation, Böhland)","nitrification [2]; IT5° C., DAT42, % a.i. DMPSA 0.30, DCD 0.05",55
same,"IE (inhibition of NO3 formation, Böhland)","nitrification [2]; IT5° C., DAT42, % a.i. DMPSA 0.50, DCD 0.08",53
same,"IE (inhibition of NO3 formation, Böhland)","nitrification [2]; IT5° C., DAT56, % a.i. DMPSA 0.25, DCD 1",83
same,"IE (inhibition of NO3 formation, Böhland)","nitrification [2]; IT5° C., DAT56, % a.i. DMPSA 0.25, DCD 3",83
same,"IE (inhibition of NO3 formation, Böhland)","nitrification [2]; IT5° C., DAT56, % a.i. DMPSA 0.30, DCD 0.05",63
same,IE inhibition of NO3 formation,"nitrification [2]; IT10° C., DAT10, % a.i.: DMPSA 0.5, DCD 1, DMPSA + DCD 0.5 + 1 (1:2)",70
same,IE inhibition of NO3 formation,"nitrification [2]; IT10° C., DAT10, % a.i.: DMPSA 0.5, DCD 3, DMPSA + DCD 0.5 + 3 (1:6)",70
same,IE inhibition of NO3 formation,"nitrification [2]; IT10° C., DAT20, % a.i.: DMPSA 0.5, DCD 1, DMPSA + DCD 0.5 + 1 (1:2)",7
same,IE inhibition of NO3 formation,"nitrification [2]; IT10° C., DAT20, % a.i.: DMPSA 0.5, DCD 3, DMPSA + DCD 0.5 + 3 (1:6)",7
same,"IE (inhibition of NO3 formation, Böhland)","nitrification [2]; IT10° C., DAT28, % a.i. DMPSA 0.25, DCD 1",59
same,"IE (inhibition of NO3 formation, Böhland)","nitrification [2]; IT10° C., DAT28, % a.i. DMPSA 0.25, DCD 3",59
same,"IE (inhibition of NO3 formation, Böhland)","nitrification [2]; IT10° C., DAT28, % a.i. DMPSA 0.30, DCD 0.05",51
same,"IE (inhibition of NO3 formation, Böhland)","nitrification [2]; IT10° C., DAT28, % a.i. DMPSA 0.50, DCD 0.08",46
